Entries after “also recorded” stand apart in the source; their conditions may differ.
Key:
[1] = tested on: MDA; experiment: HOBA-MDA adducts in macrophages incubated with ox-LDL (LC-MS/MS); assay type: cell-based, mouse; settings: 24 h; for HOBA-MDA (propenal-HOBA) adducts in macrophages: macrophages treated with oxidized LDL, 2-HOBA versus 4-HOBA
Procedure: Peritoneal macrophages were isolated from C57BL/6J mice and incubated with 50 μg/mL ox-LDL, and treated with either 250 μm 2-HOBA or 4-HOBA (18A), or 5 μm of 2-HOBA or 4-HOBA (18B, 18C, 18D) for 24 h. Cell samples were collected and the HOBA-MDA adducts were measured using LC-MS/MS as described in supplemental methods. * p<0.05, One-way ANOVA with Bonferroni's post hoc test.
The scavenger-MDA adducts were extracted, (1) from homogenate of tissue (equivalent of 30 mg) or (2) from cells (1 ml), three times with 500 μl of ethyl acetate. The extract was dried down, resuspended in 100 μl of ACN-water (1:1, v/v with 0.1% formic acid), vortexed, and filtered through a 0.22 μm spin X column. The reactions were analyzed by LC-EST/MS/MS using the column a Phenomenex Kinetex column at a flow rate of 0.1 ml/min. The gradient consisted of Solvent A, water with 0.2% formic acid and solvent B, acetonitrile with 0.2% formic acid. The gradient was as follows: 0-2 min 99.9% A, 2-9 min 99.9-0.1% A, 9-12 min 99.9% B. The mass spectrometer was operated in the positive ion mode, and the spray voltage was maintained at 5,000 V. Nitrogen was used for the sheath gas and auxiliary gas at pressures of 30 and 5 arbitrary units, respectively. The optimized skimmer offset was set at 10, capillary temperature was 300° C., and the tube lens voltage was specific for each compound. SRM of specific transition ions for the precursor ions at m/z 178→107 (propenal-HOBA adduct).

[2] = previous in vitro studies; cited from earlier work
[3] = tested on: Phospho-Akt (S473); experiment: Akt signaling in macrophages (phospho-Akt Western blot); assay type: cell-based, mouse; settings: 250 μM, 1 hour; absence and presence of insulin; vehicle, 4-HOBA, 2-HOBA compared
Procedure: WT macrophages were treated with or without vehicle (water), 250 μM 4-HOBA or 2-HOBA for 1 hour, and then incubated with or without 100 nM insulin as indicated for 15 min. Phospho-Akt (S473) and GAPDH were detected by Western Blotting (19A). The band density was quantitated by ImageJ software (19B). Two independent experiments were performed.

[4] = tested on: IsoLG; experiment: IsoLG-HOBA adducts/metabolites in liver and heart (LC/MS); assay type: in vivo, mouse; settings: for IsoLG-HOBA adducts in hearts and livers: Ldlr−/− mice after 16 weeks on a western diet
Procedure: To generate an internal standard for quantitation, 10 molar equivalents of the heavy isotope labeled 2-HOBA, [^2H4]2-HOBA, was reacted with synthetic IsoLG^69 overnight in 1 mM triethylammonium acetate buffer to form IsoLG-2-HOBA adducts, and the adducts separated from unreacted [^2H4]2-HOBA and IsoLG by solid phase extraction (Oasis HLB). The isolated reaction products of IsoLG-2-HOBA were scanned by mass spectrometer (Waters Xevo-TQ-Smicro triple quadrupole MS) operating in limited mass scanning mode to identify major products. Additionally, precursor scanning with the product ion set at m/z 111.1 was used to confirm that the detected products were [^2H4]2-HOBA adducts. […] Similar species were seen when IsoLG was reacted with non-labeled 2-HOBA and precursor scanning using product ion m/z 107.1 To identify potential 2-HOBA adducts in tissue of treated animals, the present inventors first generated a list of 18 probable IsoLG-HOBA species [pyrrole, lactam, hydroxylactam based on the in vitro reactions of IsoLG and 2-HOBA and then the anhydro-, dinor-, dinor/anhydro-, tetranor-, and keto-(from oxidation of hydroxyl group) metabolites of each of these three adducts based on previous metabolism studies with prostaglandins and isoprostanes]. The present inventors then analyzed liver homogenate from a 2-HOBA treated mouse using LC/MS with the mass spectrometer operating in positive ion precursor scanning mode and the product ion set to m/z 107.1 and collision energy at 20 eV and looked for the presence of any of these precursor ions. […] M2 m/z 440.3, which mass is consistent with the pyrrole adduct, and M3 m/z 454.3 which mass is consistent with the anhydro-hydroxylactam adduct or the keto-lactam adduct. When then sought to quantify the amount of the putative IsoLG-HOBA adducts in heart and liver samples as there was not sufficient aorta sample remaining from other analysis available to do this analysis.
For these experiments, liver or heart samples from Ldlr^−/− mice treated with 2-HOBA or 4-HOBA were homogenized in 0.5 M Tris buffer solution pH 7.5 containing mixture of antioxidants (pyridoxamine, indomethacin, BHT, TCEP). Total amount of protein in homogenate was determined for normalization. 1 pmol IsoLG-[^2H4]2-HOBA was then added to each homogenate sample as internal standard, the HOBA adducts extracted with ethyl acetate, dried, dissolved in solvent 1 (water with 0.1% acetic acid) and analyzed by LC/MS using Waters Xevo-TQ-Smicro triple quadrupole mass spectrometer operating in positive ion multiple reaction monitoring (MRM) mode, monitoring the following transitions: m/z 438.3→107.1@20 eV for M1; m/z 440→107.1@20 eV for M2; m/z 454→107.1@20 eV for M3; and m/z 476.3→111.1@20 eV for IsoLG-[^2H4]2-HOBA hydroxylactam. Desolvati on temperature: 500° C.; source temperature: 150° C.; capillary voltage: 5 kV, cone voltage: 5 V; cone gas flow 1 L/h; desolvation gas flow 1000 L/h. HPLC condition were as follows: Solvent 1: water with 0.1% acetic acid; Solvent 2, methanol with 0.1% acetic acid; column: Phenomenex Kinetex C8 50×2.1 mm 2.6 u 100 Å, flow rate: 0.4 mL/min; gradient: starting condition 10% B with gradient ramp to 100% B over 3.5 min, hold for 0.5 min, and return to starting conditions over 0.5 min. Abundance for each metabolite was calculated based on the ratio of peak height versus that of internal standard.

[5] = tested on: F2-IsoP; experiment: Urine F2-isoprostane levels (LC/MS/MS); assay type: in vivo, mouse; settings: Ldlr−/− mice, western diet 16 weeks, 1 g/L; vehicle, 4-HOBA, 2-HOBA compared
Procedure: The urine F2-IsoP levels were measured by LC/MS/MS) from Ldlr^−/− mice consuming a western diet for 16 weeks and treated with 1 g/L 2-HOBA, 4-HOBA, or vehicle. N=5 or 6 per group, p=0.43, Kruskal-Wallis test. Urinary creatinine levels were measured for normalization.

[6] = Ldlr−/− mice, Western diet 16 weeks, continuously treated, Mean ± SEM

NCc1ccccc1O [2-HOBA, 2-hydroxybenzylamine]
propenal-2-HOBA, DHP-MDA-2-HOBA and crosslinked MDA-2-HOBA adducts in cells ([1]; cells incubated with 5 μM, ox-LDL): significant levels of propenal-2-HOBA were formed | HOBA-MDA (propenal-HOBA) adducts in macrophages [1]: increased; also recorded: readily detected; also recorded: formation of 2-HOBA-MDA adducts | reactivity with lipid dicarbonyls / dicarbonyl scavenging [2]: rapidly reacts | pAKT levels in macrophages [3]: no difference; also recorded: does not influence | IsoLG-HOBA adducts in hearts and livers [4]: present | IsoLG-HOBA-M1 level, heart [4, 6]: 0.74 ± 0.21 nmol/kg | IsoLG-HOBA-M1 level, liver [4, 6]: 0.88 ± 0.14 nmol/kg | IsoLG-HOBA-M2 level, heart [4, 6]: 0.57 ± 0.35 nmol/kg | IsoLG-HOBA-M2 level, liver [4, 6]: 0.82 ± 0.12 nmol/kg | IsoLG-HOBA-M3 level, heart [4, 6]: 0.24 ± 0.17 nmol/kg | IsoLG-HOBA-M3 level, liver [4, 6]: 4.17 ± 1.85 nmol/kg | urine F2-IsoP levels [5]: not significantly different; also recorded: does not impact

NCc1ccc(O)cc1 [4-HOBA, 4-hydroxybenzylamine, reference compound]
HOBA-MDA (propenal-HOBA) adducts in macrophages [1]: undetectable | reactivity with lipid dicarbonyls / dicarbonyl scavenging [2]: poor reactivity; also recorded: ineffective | pAKT levels in macrophages [3]: no difference | IsoLG-HOBA adducts in hearts and livers [4]: nondetectable | urine F2-IsoP levels [5]: not different

From patent US20230364032A1, “USE OF 2-HOBA TO TREAT ATHEROSCLEROSIS” (Vanderbilt University, priority 2020, published 2023)
